From the supplement of paper PMC10307832

Assays:
Assay in all cases: relative viability (nuclei count vs DMSO), 5 days (fraction); higher = more cells survive
[1] = compound: COC1=CC=C(C=C1)CN2C=CC3=C2C=C(C=C3)C(=O)NO
In short: (§1)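 Hoechst staining, done together with fixation and permeabilisation, marked nuclei for 4× imaging and MetaXpress counting. This followed 5 days without medium change after lung cancer cell lines, kept overnight at 37 °C in 1536-well plates, were pinned with five library-drug doses (not always all listed) spaced by √10 on vehicle-anchored plates. Viability is the ratio of treated-well to vehicle-well nuclei, expressed as a median across plates. Plates passed only at control CV below 25% with at least one doubling.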

Veliparib = compound: C[C@]1(c2nc3c(C(N)=O)cccc3[nH]2)CCCN1 [Veliparib]
In short: as §1

[2] = compound: COC1=CC=C(C=C1)CN2C=CC3=C2C=C(C=C3)C(=O)NO + CC1(C)CCC(c2ccc(Cl)cc2)=C(CN2CCN(c3ccc(C(=O)NS(=O)(=O)c4ccc(N[C@H](CCN5CCOCC5)CSc5ccccc5)c(S(=O)(=O)C(F)(F)F)c4)cc3)CC2)C1 [Navitoclax] (partner 0.5 µM)
In short: (§2)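 Lung cancer cell lines were seeded in 1536-well plates and dosed by pin tool the next day, with either a single drug or a fixed anchor-drug dose combined with five library-drug doses (not always all listed) spaced in √10 steps. Five days later, one step fixed the cells and stained their nuclei (final 0.05% Triton X-100, 1% formaldehyde, 1 ug/ml Hoechst), and nuclei were counted on 4× images. Relative viability is the nuclei count in treated wells divided by the count in vehicle wells, and each value is the median of duplicate plates.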

Veliparib + Phenformin = compound: C[C@]1(c2nc3c(C(N)=O)cccc3[nH]2)CCCN1 [Veliparib] + N=C(N)NC(=N)NCCc1ccccc1 [Phenformin] (partner 250 µM)
In short: as §2

Cell Line | relative viability ([1]; 0.08 µM) | relative viability ([1]; 0.253 µM) | relative viability ([1]; 0.8 µM) | relative viability ([1]; 2.53 µM) | relative viability ([1]; 8 µM) | relative viability (Veliparib; 0.02 µM) | relative viability (Veliparib; 0.06325 µM) | relative viability (Veliparib; 0.2 µM) | relative viability (Veliparib; 0.6325 µM) | relative viability (Veliparib; 2 µM) | relative viability ([2]; first compound 0.08 µM) | relative viability ([2]; first compound 0.253 µM) | relative viability ([2]; first compound 0.8 µM) | relative viability ([2]; first compound 2.53 µM) | relative viability ([2]; first compound 8 µM) | relative viability (Veliparib + Phenformin; first compound 0.02 µM) | relative viability (Veliparib + Phenformin; first compound 0.06325 µM) | relative viability (Veliparib + Phenformin; first compound 0.2 µM) | relative viability (Veliparib + Phenformin; first compound 0.6325 µM) | relative viability (Veliparib + Phenformin; first compound 2 µM)
CAL-12T | 1.02 | 0.889 | 1.04 | 1.05 | 0.891 | 0.918 | 0.926 | 0.981 | 0.9 | 1.02 | 0.964 | 1.29 | 1.25 | 1.24 | 1.23 | 0.436 | 0.617 | 0.537 | 0.54 | 0.53
LK-2 |  | 1.03 | 1.07 | 0.992 | 0.949 | 0.861 | 1.06 | 1.08 | 0.916 | 0.964 |  | 0.906 | 1 | 0.958 | 0.747 |  | 0.516 | 0.594 | 0.543 | 0.481
H3255 | 0.992 | 0.957 | 0.948 | 0.968 | 0.842 | 0.919 | 0.92 | 0.962 | 0.951 | 0.992 | 0.574 | 0.501 | 0.503 | 0.541 | 0.46 | 0.365 | 0.367 | 0.36 | 0.322 | 0.329
NCI-H727 | 0.853 | 0.941 | 0.899 | 0.983 | 0.927 | 0.941 | 0.913 | 1.06 | 0.897 | 1 | 0.342 | 0.404 | 0.404 | 0.543 | 0.341 | 0.481 | 0.443 | 0.549 | 0.483 | 0.521
NCI-H2405 | 0.908 | 0.934 | 1 | 1.06 | 0.913 | 0.973 | 0.89 | 1.01 | 1 | 0.691 | 0.534 | 0.82 | 0.764 | 0.775 | 0.66 | 0.388 | 0.371 | 0.411 | 0.393 | 0.308
RERF-LC-KJ | 0.956 | 1.03 | 0.984 | 1.03 | 0.969 | 0.964 | 0.939 | 1.01 | 0.938 | 1.01 | 0.934 | 0.852 | 0.903 | 1.04 | 0.926 | 0.408 | 0.442 | 0.4 | 0.396 | 0.47
NCI-H1734 |  | 0.957 | 1.16 | 1.02 | 0.73 | 0.82 | 0.857 | 0.957 | 0.858 | 0.997 |  | 0.899 | 0.947 | 0.805 | 0.882 | 0.358 | 0.379 | 0.383 | 0.33 | 0.455
HCC-827 | 1.06 | 0.935 | 0.997 | 1.03 | 0.97 | 0.986 | 1.03 | 1 | 0.977 | 1.07 | 0.95 | 0.964 | 0.988 | 1.08 | 0.986 | 0.357 | 0.396 | 0.43 | 0.368 | 0.387
NCI-H520 | 0.708 | 1.04 | 1.03 | 1.04 | 0.97 | 0.977 | 0.975 | 0.97 | 0.87 | 0.993 | 0.279 | 1.18 | 1.27 | 1.15 | 1.09 | 0.709 | 0.558 | 0.761 | 0.538 | 0.578
NCI-H1792 | 0.952 | 0.883 | 0.99 | 0.766 | 0.795 | 0.825 | 0.694 | 0.943 | 0.966 | 0.718 | 0.574 | 0.55 | 0.481 | 0.646 | 0.601 | 0.212 | 0.213 | 0.398 | 0.328 | 0.247
NCI-H2126 | 0.99 | 1.03 | 1.03 | 1.02 | 0.942 | 0.986 | 0.926 | 0.984 | 0.985 | 0.999 | 0.824 | 0.931 | 0.849 | 0.848 | 0.886 | 0.556 | 0.535 | 0.519 | 0.498 | 0.541
EPLC-272H | 0.753 | 0.871 | 1 | 0.974 | 0.766 |  | 0.855 | 1.02 | 1.01 | 0.938 | 0.7 | 1.06 | 1.13 | 1.05 | 1.18 | 0.304 | 0.307 | 0.332 | 0.292 | 0.333
HCC-366 | 0.791 | 0.993 | 0.973 | 0.964 | 1.01 | 1.03 | 0.992 | 1 | 1.01 | 1.03 |  | 1.05 | 1.14 | 1.06 | 1.13 | 0.582 | 0.578 | 0.576 | 0.522 | 0.636
EKVX | 0.782 | 1.02 | 0.991 | 1.05 | 0.957 | 0.744 | 0.93 | 0.94 | 1 | 0.972 | 0.934 | 1 | 0.968 | 0.988 | 0.952 | 0.194 | 0.162 | 0.249 | 0.221 | 0.222
NCI-H1395 | 0.752 | 0.915 | 0.877 | 0.963 | 0.753 | 0.594 | 0.655 | 0.791 | 0.817 | 0.692 | 0.688 | 1.29 | 1.12 | 1.4 | 0.992 | 0.355 | 0.421 | 0.437 | 0.393 | 0.408
201T | 1.02 | 0.987 | 1.05 | 0.993 | 0.942 | 0.901 | 0.926 | 0.959 | 1.11 | 1.01 | 1.19 | 1.24 | 1.22 | 1.23 | 1.19 | 0.411 | 0.356 | 0.463 | 0.457 | 0.462
